According to paper PMC7380166, “How to Study the Metabolism of New Psychoactive Substances for the Purpose of Toxicological Screenings—A Follow-Up Study Comparing Pooled Human Liver S9, HepaRG Cells, and Zebrafish Larvae” (Frontiers in Chemistry, 2020):
Like-named read-outs stand apart in the source and are kept apart here.

Tests used:
HepaRG cells = test: Incubations with HepaRG cells, metabolite identification by LC-HRMS/MS; assay type: in vitro ADME, human; conditions: 24 h; for Absolute peak area, HepaRG [25 μM]: 25 μM parent NPS; for Absolute peak area, HepaRG [25 μM] / Absolute peak area, HepaRG [250 μM]: cell culture medium, one replicate of n = 3, n.d. = not detected; for Absolute peak area, HepaRG [250 μM]: 250 μM parent NPS
zebrafish larvae [1] = test: Zebrafish larvae exposure, metabolite identification by LC-HRMS/MS; conditions: 24 h; for Absolute peak area, Zebrafish larvae [100 µM]: 100 µM parent NPS in medium; for Absolute peak area, Zebrafish larvae [100 µM] / Absolute peak area, Zebrafish larvae [25 μM]: larvae 4 dpf, larvae extract, one replicate of n = 3, n.d. = not detected; for Absolute peak area, Zebrafish larvae [25 μM]: 25 μM 4F-MDMB-BINACA in medium
[2] = cited from earlier work; for Detection in pHLS9 [25 µM]: n = 2, according to literature
zebrafish larvae [3] = test: In vivo maximum-tolerated concentration (MTC) study in zebrafish larvae; design: species or system zebrafish (Danio rerio); conditions: for Survival rate: 24-h treatment, fifteen larvae
Experimental: Internal protocols based on published standard methods (Westerfield, [2007]) were used to perform zebrafish husbandry and the maximum-tolerated concentration (MTC) testing was based on a previous study (Richter et al., [2019a]). Danieau's medium [17 mM NaCl, 2 mM KCl, 0.12 mM MgSO4, 1.8 mM Ca(NO3)2, 1.5 mM HEPES, pH 7.1–7.3, and 1.2 μM methylene blue] at 28°C was used to raise zebrafish larvae of the AB wild-type strain. For MTC testing, 96-well plates were used with 100 μl of medium and one larva per well. Drug exposition was started 4 dpf using 0, 0.01, 0.1, 1, 10, 50, or 100 μM final concentrations of 3,4-DMA-NBOMe, ephylone, 4F-MDMB-BINACA, 4F-PHP, or 1P-LSD, respectively. The drug exposure in the incubator at 28°C lasted 24 h. The final DMSO concentration was 1% (v/v) for all experiments. Monitoring of the larvae was done using a LEICA M205 FA stereo microscope (Leica Mikrosysteme Vertrieb GmbH, Wetzlar, Germany) to detect developmental defects and/or decreased survival rates. Fifteen larvae were used for each experiment.

monooxygenases = conditions: initial monooxygenases activity screenings described elsewhere; ref Caspar et al., [2018a]; Wagmann et al., [2019b],[c]; cited from earlier work
[4] = Incubations with pooled human liver S9 fraction (pHLS9), metabolite identification by LC-HRMS/MS; assay type: in vitro ADME; conditions: 25 μM 4F-MDMB-BINACA, one replicate of n = 2, n.d. = not detected; for Absolute peak area, pHLS9 1 h [25 μM]: 1 h incubation; for Absolute peak area, pHLS9 6 h [25 μM]: 6 h incubation
Experimental: According to published procedures (Richter et al., [2017b], [2019b]; Caspar et al., [2018b]; Wagmann et al., [2019b],[c]), the final incubation volume per reaction tube was 150 μl, with a final protein concentration of 2 mg/ml. The given concentrations represent final concentrations. A preincubation for 10 min at 37°C with UGT reaction mixture solution B (containing alamethicin, 25 μg/ml), MgCl2 (2.5 mM), NADP^+ (0.6 mM), isocitrate (2.5 mM), isocitrate dehydrogenase (0.8 U/ml), superoxide dismutase (100 U/ml), acetyl coenzyme A (0.1 mM), phosphate buffer (90 mM, pH 7.4), and pHLS9 (2 mg/ml) was done. Afterwards, UGT reaction mixture solution A (containing UDP glucuronic acid, 2.5 mM), PAPS (40 μM), SAM (1.2 mM), dithiothreitol (1 mM), and glutathione (10 mM) were added, as well as 25 μM 4F-MDMB-BINACA to start the reactions. The mixture was incubated for 360 min. Total amount of organic solvent in incubation mixtures was <2% (Chauret et al., [1998]). After 60 min, an aliquot of the reaction mixture (60 μl) was transferred in another reaction tube containing 20 μl of ice-cold acetonitrile to terminate the reactions. The remaining aliquot (90 μl) was incubated for an additional 300 min, and then the reactions were stopped by adding 30 μl of ice-cold acetonitrile. Thereafter, the reaction tubes were cooled at −20°C for 30 min prior to centrifugation at 18,407 × g for 2 min. The supernatants (50 μl) were transferred into autosampler vials, and 1 μl was injected onto the LC-HRMS/MS system. Control samples without pHLS9 and blank samples without substrate were prepared to confirm the absence of non-metabolically formed and interfering compounds, respectively. All incubations were performed in duplicate.
According to a previous study (Richter et al., [2019a]), a Thermo Fisher Scientific (TF, Dreieich, Germany) Dionex UltiMate 3000 Rapid Separation (RS) UHPLC system with a quaternary UltiMate 3000 RS pump and an UltiMate 3000 RS autosampler controlled by the TF Chromeleon software version 6.8 was used. The LC system was coupled to an Orbitrap-based TF Q-Exactive Plus equipped with a heated electrospray ionization II (HESI-II) source. Calibration was done prior to analysis with a Positive Cal Mix (Supelco, Bellefonte, PA, USA) at a flow rate of 3 μl/min using a syringe pump. The conditions of the LC system were as follows: TF Accucore PhenylHexyl column (100 × 2.1 mm, 2.6 μm particle size); gradient elution with 2 mM ammonium formate solution containing 0.1% (v/v) formic acid (eluent A) and 2 mM ammonium formate solution in acetonitrile/methanol (50:50, v/v) containing 0.1% (v/v) formic acid, and 1% (v/v) water (eluent B). […] The following gradient was used: 0–1.0 min hold 1% B, 1–10 min to 99% B, 10–11.5 min hold 99% B, 11.5–13.5 min hold 1% B. The HESI-II source conditions were as follows: ionization mode, positive; heater temperature, 320°C; ion transfer capillary temperature, 320°C; sheath gas, 60 arbitrary units (AU); auxiliary gas, 10 AU; spray voltage, 4.00 kV; and S-lens RF level, 50.0. Mass spectrometry experiments were performed using high-resolution (HR) full scan mode and a targeted MS^2 mode with an inclusion list for each NPS. The inclusion list contained m/z values of metabolites, which were likely to be formed for example hydroxy, oxo, carboxy, dealkyl, demethylenylated, and defluorinated metabolites (phase I) as well as sulfates and glucuronides (phase II) and combinations of them. Full scan settings were as follows: resolution, 35,000; automatic gain control (AGC) target, 3e6; maximum injection time (IT), 120 ms; scan ranges, 3,4-DMA-NBOMe m/z 100–700, ephylone m/z 200–600, 4F-MDMB-BINACA m/z 150–700, 4F-PHP m/z 200–600, and 1P-LSD m/z 250–700. The settings for the targeted MS^2 mode with the respective inclusion lists were as follows: resolution, 17,500; AGC target, 2e5; maximum IT, 250 ms; loop count, 5; isolation window, 1.0 m/z; stepped normalized collision energy (NCE), 17.5, 35, 52.5%; pick others, enabled. […]

[5] = human biosamples after intake of ephylone and 4F-PHP; ref Wagmann et al., [2019b]; cited from earlier work
[6] = 25 μM, ref Caspar et al., [2018b]
[7] = ephylone and metabolites, ref Wagmann et al., 2019a

| Compound | Absolute peak area, HepaRG [25 μM] (HepaRG cells) | Absolute peak area, HepaRG [250 μM] (HepaRG cells) | Absolute peak area, Zebrafish larvae [100 µM] (zebrafish larvae [1]) | Absolute peak area, pHLS9 1 h [25 μM] [4] | Absolute peak area, pHLS9 6 h [25 μM] [4] | Absolute peak area, Zebrafish larvae [25 μM] (zebrafish larvae [1]) | other results |
| --- | --- | --- | --- | --- | --- | --- | --- |
| COc1ccccc1CNC(C)Cc1ccc(OC)c(OC)c1 (stereo not drawn) [3,4-DMA-NBOMe, 1-[3,4-dimethoxy]-N-[ortho-methoxybenzyl]propane-2-amine] | 1.48E+09 | 1.03E+10 | 6.22E+09 | – | – | – | Number of phase I metabolites detected, HepaRG [25 μM] (HepaRG cells; 25 μM): 6; Number of phase II metabolites detected, HepaRG [25 μM] (HepaRG cells; 25 μM): 4; Number of phase I metabolites detected, HepaRG [250 μM] (HepaRG cells; 250 μM): 10; Number of phase II metabolites detected, HepaRG [250 μM] (HepaRG cells; 250 μM): 7; Number of phase I metabolites detected, Zebrafish larvae (zebrafish larvae [1]; 100 μM in medium): 9; Number of phase II metabolites detected, Zebrafish larvae (zebrafish larvae [1]; 100 μM in medium): 7; Number of phase I metabolites detected, pHLS9 [25 μM] [2, 6]: 6 (Caspar et al., [2018b]); Number of phase II metabolites detected, pHLS9 [25 μM] [2, 6]: 5 (Caspar et al., [2018b]); Detection in pHLS9 [25 µM] ([2]; 3,4-DMA-NBOMe and metabolites, ref Caspar et al., 2018): +; Survival rate (zebrafish larvae [3]; 0.01 μM, larvae 4 dpf): 100%; Survival rate (zebrafish larvae [3]; 0.1 μM, larvae 4 dpf): 100%; Survival rate (zebrafish larvae [3]; 1 μM, larvae 4 dpf): 100%; Survival rate (zebrafish larvae [3]; 10 μM, larvae 4 dpf): 100%; Survival rate (zebrafish larvae [3]; 50 μM, larvae 4 dpf): 100%; Survival rate (zebrafish larvae [3]; 100 μM, larvae 4 dpf): 100%; Survival rates for all tested concentrations (zebrafish larvae [3]; 0.01 to 100 μM, larvae 4 dpf, 24 h): 100%; Concentration considered non-toxic for zebrafish larvae (4 dpf) (zebrafish larvae [3]; 24 h exposure via medium): 100 µM; Malformations (zebrafish larvae [3]; up to 100 μM, larvae 4 dpf, 24 h): no malformations; Monooxygenases involved in metabolism (monooxygenases): CYP3A4 was described to be involved in the N-dealkylation and CYP2C19 and CYP2D6 in the O-demethylation and hydroxylation |
| CC(C)(C)[C@H](NC(=O)c1n[nH]c2ccccc12)C(=O)O [MB3] | 3.99E+05 | 6.92E+06 | – | 9.07E+05 | 1.27E+06 | – | – |
| CC1(C)COC(=O)C1NC(=O)c1nn(CCCCO)c2ccccc12 (stereo not drawn) [MB5] | – | 2.40E+05 | – | – | 1.26E+06 | 9.42E+05 | – |
| CC(C)(C)[C@H](NC(=O)c1nn(CCCCO)c2ccccc12)C(=O)O [MB7] | 1.25E+06 | 1.34E+07 | – | – | 1.91E+06 | 5.96E+04 | – |
| CC1(C)COC(=O)C1NC(=O)c1nn(CCCC(=O)O)c2ccccc12 (stereo not drawn) [MB9] | – | – | – | – | 1.57E+05 | 2.53E+06 | – |
| CC(C)(CO)C(NC(=O)c1nn(CCCCF)c2ccccc12)C(=O)O (stereo not drawn) [MB13] | – | 3.13E+07 | – | 7.30E+03 | 6.42E+05 | 4.57E+05 | – |
| COC(=O)[C@@H](NC(=O)c1nn(CCCC(=O)O)c2ccccc12)C(C)(C)C [MB15] | 1.15E+04 | 8.00E+06 | – | 2.16E+06 | 3.34E+06 | 2.60E+07 | – |
| CCCC(N)C(=O)c1ccc2c(c1)OCO2 (stereo not drawn) [ME1] | 4.14E+06 | 2.21E+07 | 4.12E+06 | – | – | – | Detection in pHLS9 [25 µM] [2, 7]: +; Signals with the highest abundance in human plasma and/or urine [5]: highest ephylone-related signals |
| CCCC(NCC)C(=O)c1ccc(O)c(O)c1 (stereo not drawn) [ME2] | 1.72E+05 | 6.37E+05 | 4.44E+06 | – | – | – | Detection in pHLS9 [25 µM] [2, 7]: +; Signals with the highest abundance in human plasma and/or urine [5]: highest ephylone-related signals |
